Experimental data reported in patent US20100061982A1, “3-SUBSTITUTED-1H-INDOLE, 3-SUBSTITUTED-1H-PYRROLO[2,3-B]PYRIDINE AND 3-SUBSTITUTED-1H-PYRROLO[3,2-B]PYRIDINE COMPOUNDS, THEIR USE AS MTOR KINASE AND PI3 KINASE INHIBITORS, AND THEIR SYNTHESES” (priority 2008, published 2010).
Converted amounts (≈) assume the structure as drawn. Like-named read-outs stand apart in the source and are kept apart here.

Legend:
[1] = CACO2 permeability a-b/b-a; format: in vitro ADME; details: human, Caco-2; for Papp A→B: a − b (first value of cell), read-out: CACO2 Pe a − b; for Papp B→A: b − a (second value of cell), read-out: CACO2 Pe b − a
[2] = molecular target: PI3K alpha (Homo sapiens, UniProt P42336); assay: PI3K-alpha Fluorescence Polarization Assay; format: biochemical
Chain of PI3K alpha (P42336 whole entry, species assumed): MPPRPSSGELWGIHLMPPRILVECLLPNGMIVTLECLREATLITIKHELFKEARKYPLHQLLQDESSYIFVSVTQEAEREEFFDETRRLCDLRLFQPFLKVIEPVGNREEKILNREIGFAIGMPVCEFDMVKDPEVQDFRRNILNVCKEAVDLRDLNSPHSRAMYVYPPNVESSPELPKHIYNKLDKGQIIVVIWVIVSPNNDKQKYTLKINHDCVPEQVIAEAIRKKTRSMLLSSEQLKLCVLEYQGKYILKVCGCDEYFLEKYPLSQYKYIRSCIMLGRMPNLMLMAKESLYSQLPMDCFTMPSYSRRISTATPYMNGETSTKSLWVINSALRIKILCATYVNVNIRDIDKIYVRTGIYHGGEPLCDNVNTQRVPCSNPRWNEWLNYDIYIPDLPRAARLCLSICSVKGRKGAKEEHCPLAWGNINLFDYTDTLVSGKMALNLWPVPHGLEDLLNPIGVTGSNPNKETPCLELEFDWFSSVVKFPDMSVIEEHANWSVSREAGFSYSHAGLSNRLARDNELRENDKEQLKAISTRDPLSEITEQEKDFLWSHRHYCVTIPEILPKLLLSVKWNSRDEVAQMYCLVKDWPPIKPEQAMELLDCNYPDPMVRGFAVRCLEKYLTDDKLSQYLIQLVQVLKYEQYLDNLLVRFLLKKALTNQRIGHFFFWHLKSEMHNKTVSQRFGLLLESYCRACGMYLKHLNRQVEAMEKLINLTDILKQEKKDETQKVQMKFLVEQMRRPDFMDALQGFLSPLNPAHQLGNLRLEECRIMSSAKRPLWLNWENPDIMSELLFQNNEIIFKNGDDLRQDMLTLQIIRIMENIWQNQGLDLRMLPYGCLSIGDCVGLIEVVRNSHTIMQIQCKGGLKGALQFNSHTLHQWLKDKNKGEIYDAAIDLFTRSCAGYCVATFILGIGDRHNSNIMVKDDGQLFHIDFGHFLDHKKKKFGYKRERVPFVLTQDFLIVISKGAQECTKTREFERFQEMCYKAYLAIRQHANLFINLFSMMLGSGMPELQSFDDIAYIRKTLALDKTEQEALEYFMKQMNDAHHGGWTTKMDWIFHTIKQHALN
Chain of PI3K alpha (P27986 whole entry partner, species assumed): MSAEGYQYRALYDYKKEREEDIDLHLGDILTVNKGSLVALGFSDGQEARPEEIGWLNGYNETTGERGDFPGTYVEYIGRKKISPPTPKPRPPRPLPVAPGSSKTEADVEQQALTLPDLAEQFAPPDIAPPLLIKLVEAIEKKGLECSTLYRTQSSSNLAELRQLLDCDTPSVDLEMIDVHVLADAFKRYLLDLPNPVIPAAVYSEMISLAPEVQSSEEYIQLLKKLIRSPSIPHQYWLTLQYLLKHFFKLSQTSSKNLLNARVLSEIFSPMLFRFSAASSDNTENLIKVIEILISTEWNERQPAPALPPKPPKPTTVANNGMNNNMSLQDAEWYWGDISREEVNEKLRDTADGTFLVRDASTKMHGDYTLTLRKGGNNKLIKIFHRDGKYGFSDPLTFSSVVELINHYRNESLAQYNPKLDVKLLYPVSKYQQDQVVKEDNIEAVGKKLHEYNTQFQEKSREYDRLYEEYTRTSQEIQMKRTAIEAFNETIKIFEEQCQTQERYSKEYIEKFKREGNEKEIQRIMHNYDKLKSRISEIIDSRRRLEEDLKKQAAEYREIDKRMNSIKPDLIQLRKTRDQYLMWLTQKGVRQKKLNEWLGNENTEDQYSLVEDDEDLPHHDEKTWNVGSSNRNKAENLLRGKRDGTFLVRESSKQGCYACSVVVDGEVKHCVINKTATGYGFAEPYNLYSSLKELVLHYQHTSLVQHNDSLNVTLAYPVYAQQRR

[3] = Buffer Stability (37° C.)
[4] = Microsome Stability (15 min), human; format: in vitro ADME; details: microsomes
[5] = In vivo blood/plasma and tumor levels of prodrug and metabolites after 50 mg, kg po; details: 50 mg
[6] = Plasma Stability (37° C.), rat
[7] = PAMPA permeability pH 7.4
[8] = Microsome Stability (15 min), rat; format: in vitro ADME; details: microsomes
[9] = Plasma Stability (37° C.), nude mouse
[10] = Microsome Stability (15 min), nude mouse; format: in vitro ADME; details: microsomes
[11] = Solubility pH 7.4; details: pH 7.4, aqueous buffer
[12] = Phase I (NADPH), read-out: Microsome Stability (15 min) T ½ Phase I human
[13] = Phase I (NADPH), read-out: Microsome Stability (15 min) T ½ Phase I rat
[14] = Phase I (NADPH), read-out: Microsome Stability (15 min) T ½ Phase I nude mouse
[15] = nude, mouse, Phase I (NADPH), read-out: Microsome Stability (15 min) T ½ Phase I nude mouse
[16] = value after the slash in Table VIc, read-out: Microsome Stability (15 min) T ½ human, second value of cell

Row | Structure (SMILES) | Buffer Stability (37° C.) % Remaining (at 16-23 hours) SGF [3] [%] | Buffer Stability (37° C.) % Remaining (at 16-23 hours) SIF [3] [%] | Buffer Stability (37° C.) % Remaining (at 16-23 hours) pH 1 [3] [%] | Buffer Stability (37° C.) % Remaining (at 16-23 hours) pH 4.5 [3] [%] | Buffer Stability (37° C.) % Remaining (at 16-23 hours) pH 7.4 [3] [%] | Buffer Stability (37° C.) % Remaining (at 16-23 hours) pH 9 [3] [%] | half-life [4, 12] [min] | Plasma Stability (37° C.) % Remaining (3-3.5 hours) rat [6] [%] | PAMPA Pe [7] | half-life [8, 13] [min] | Plasma Stability (37° C.) % Remaining (3-3.5 hours) nude mouse [9] [%] | IC50 ([2]; read-out: PI3K alpha Mean IC50) [µM] | Buffer Stability (37° C.) % Remaining (at 16-23 hours) pH 6.6 [3] [%] | solubility [11] [µg/mL] | half-life [10, 15] [min] | Papp A→B [1] [×10⁻⁶ cm/s] | Papp B→A [1] [×10⁻⁶ cm/s] | further results
1 | COc1ccc2c(c1)c(/C=C1\Oc3cc(OC(=O)N(C(C)C)C(C)C)cc(OC(=O)N(C(C)C)C(C)C)c3C1=O)cn2CCCN(C)C [Example 4, (2Z)-2-({1-[3-(dimethylamino)propyl]-5-methoxy-1H-indol-3-yl}methylene)-3-oxo-2,3-dihydro-1-benzofuran-4,6-diyl bis(diisopropylcarbamate)] | 100 | 100 | 100 | 100 | 100 | 100 | 6 | 65 | 0 10e−6 cm/s | > 30 | 64 | – | – | – | – | 0.16 | 0.06 | IC50 [2]: > 10 µM; plasma prodrug concentration ([5]; 0.5 h): 411 ng, ml; plasma prodrug concentration ([5]; 2 h): 435 ng, ml; half-life [10, 14]: 21 min
2 | COc1ccc2c(c1)c(/C=C1\Oc3cc(OC(=O)OC(C)C)cc(OC(=O)OC(C)C)c3C1=O)cn2CCCN(C)C [Example 5, (2Z)-2-({1-[3-(dimethylamino)propyl]-5-methoxy-1H-indol-3-yl}methylene)-3-oxo-2,3-dihydro-1-benzofuran-4,6-diyl diisopropyl biscarbonate] | 94 | 0 | 95 | 82 | 14 | 0 | 3 | 0 | 0 10e−6 cm/s | < 1 | 16 | > 9.75 | 63 | 3 (≈ 5.17 µM) | 3 | – | – | –
3 | COc1ccc2c(c1)c(/C=C1\Oc3cc(OC(=O)CC(C)C)cc(OC(=O)CC(C)C)c3C1=O)cn2CCCN(C)C [Example 9, (2Z)-2-({1-[3-(dimethylamino)propyl]-5-methoxy-1H-indol-3-yl}methylene)-3-oxo-2,3-dihydro-1-benzofuran-4,6-diyl bis(3-methylbutanoate)] | 77 | 0 | 73 | 66 | 0 | 0 | 6 | 0 | 0 10e−6 cm/s | 4 | 8 | > 10 | 46 | 1 (≈ 1.73 µM) | 6 | – | – | –
4 | COc1ccc2c(c1)c(/C=C1\Oc3cc(OC(=O)N(C)c4ccccc4)cc(OC(=O)N(C)c4ccccc4)c3C1=O)cn2CCCN(C)C [Example 2, (2Z)-2-({1-[3-(dimethylamino)propyl]-5-methoxy-1H-indol-3-yl}methylene)-3-oxo-2,3-dihydro-1-benzofuran-4,6-diyl bis[methyl(phenyl)carbamate]] | 100 | 100 | 100 | 100 | 100 | 100 | 24 | 22 | 0 10e−6 cm/s | > 30 | 10 | – | 100 | – | – | 0.04 | 0.08 | IC50 [2]: > 10 µM; plasma prodrug concentration ([5]; 0.5 h): 486 ng, ml; plasma prodrug concentration ([5]; 2 h): 757 ng, ml; half-life [10, 14]: > 30 min
5 | COc1ccc2[nH]c(-c3ccccc3)c(/C=C3\Oc4cc(OC(=O)C(C)(C)C)cc(OC(=O)C(C)(C)C)c4C3=O)c2c1 [Example 10, (2Z)-2-[(5-methoxy-2-phenyl-1H-indol-3-yl)methylene]-3-oxo-2,3-dihydro-1-benzofuran-4,6-diyl bis(2,2-dimethylpropanoate)] | 95 | 0 | 86 | 92 | 44 | 0 | 19 | 6 | 0 10e−6 cm/s | 12 | 0 | 2.78 | 72 | 2 (≈ 3.52 µM) | – | – | – | –

Further lines, with some results ahead:

Row | Buffer Stability (37° C.) % Remaining (at 16-23 hours) SGF [3] [%] | Buffer Stability (37° C.) % Remaining (at 16-23 hours) SIF [3] [%] | Buffer Stability (37° C.) % Remaining (at 16-23 hours) pH 1 [3] [%] | Buffer Stability (37° C.) % Remaining (at 16-23 hours) pH 4.5 [3] [%] | Buffer Stability (37° C.) % Remaining (at 16-23 hours) pH 7.4 [3] [%] | Buffer Stability (37° C.) % Remaining (at 16-23 hours) pH 9 [3] [%] | half-life [4, 12] [min] | Plasma Stability (37° C.) % Remaining (3-3.5 hours) rat [6] [%] | PAMPA Pe [7] | half-life [8, 13] [min] | Plasma Stability (37° C.) % Remaining (3-3.5 hours) nude mouse [9] [%] | IC50 ([2]; read-out: PI3K alpha Mean IC50) [µM] | Buffer Stability (37° C.) % Remaining (at 16-23 hours) pH 6.6 [3] [%] | solubility [11] [µg/mL] | half-life [10, 15] [min] | Structure (SMILES) | Papp A→B [1] [×10⁻⁶ cm/s] | Papp B→A [1] [×10⁻⁶ cm/s] | further results
6 | 95 | 57 | 99 | 93 | 82 | 94 | > 30 | 77 | 0 10e−6 cm/s | 6 | 78 | – | 83 | 33 (≈ 80.8 µM) | 15 | COc1ccc2c(c1)c(/C=C1\Oc3cc(O)cc(O)c3C1=O)cn2CCCN(C)C [(2Z)-2-({1-[3-(dimethylamino)propyl]-5-methoxy-1H-indol-3-yl}methylene)-4,6-dihydroxy-1-benzofuran-3(2H)-one] | 3.9 | 27 | half-life [4, 16]: 28 min; plasma prodrug, Dosed @ 50 mg, kg po (precursor phenolic compound dosed) ([5]; 1 h conc.): 23; plasma prodrug, Dosed @ 50 mg, kg po (precursor phenolic compound dosed) ([5]; 4 h conc.): 7
7 | 93 | 97 | 97 | 98 | 98 | 99 | 15 | 111 | 0.18 10e−6 cm/s | 18 | 83 | 0.0013 | 98 | – | 19 | COc1ccc2[nH]c(-c3ccccc3)c(/C=C3\Oc4cc(O)ccc4C3=O)c2c1 [(2Z)-6-hydroxy-2-[(5-methoxy-2-phenyl-1H-indol-3-yl)methylene]-1-benzofuran-3(2H)-one] | 0.03 | 0.11 | half-life [4, 16]: 3 min; plasma prodrug, Dosed @ 50 mg, kg po (precursor phenolic compound dosed) ([5]; first value, time not stated in Table VIIb): bql, bql; plasma prodrug, Dosed @ 50 mg, kg po (precursor phenolic compound dosed) ([5]; second value, time not stated in Table VIIb): bql, bql; half-life ([8]; value after the slash in Table VIc, read-out: Microsome Stability (15 min) T ½ rat, second value of cell): 4 min; half-life ([10]; nude, mouse, value after the slash in Table VIc, read-out: Microsome Stability (15 min) T ½ nude mouse, second value of cell): 4 min
